# Measurements taken from US8088819B2, “Derivatives of substituted 3-phenyl-1-(phenylthienyl)propan-1-ones and of 3-phenyl-1-(phenylfuranyl) propan-1-ones, preparation and use” (priority 2006, dated 2012).
# Assays:
# [1] = system: target genes of the PPARs; assay: Expression of target genes of the PPARs in liver and skeletal muscle of the E2/E2 mouse, quantitative RT-PCR; format: in vivo; settings: 50 mpk, 13 days
# Excerpt: The PPARα agonistic properties of the molecules according to the invention previously measured in vitro must be reflected at the hepatic level in a modulation of the expression of the target genes directly under the control of the PPARα receptor. The genes that were investigated in this experiment are the genes coding for PDK4 (pyruvate dehydrogenase kinase isoform 4, enzyme of carbohydrate metabolism), for AcoX1 (the AcoX1 present in the mouse corresponds to the gene of ACO in humans (acyl co-enzyme A oxidase, a key enzyme in the mechanism of the β-oxidation of fatty acids)) and for Apo CIII (an apolipoprotein involved in lipid metabolism).
# The PPARδ agonistic properties of the molecules according to the invention previously measured in vitro should also be reflected, at the level of the skeletal muscle, in overexpression of the target genes directly under the control of the PPARδ receptor. The genes that were investigated in this experiment are the genes coding for PDK4 (pyruvate dehydrogenase kinase isoform 4, enzyme of carbohydrate metabolism) and UCP2 (uncoupling protein 2, mitochondrial transporter involved in thermoregulation).
# (§1) Apo E2/E2 transgenic mice were kept under a cycle of light and darkness of 12/12 hours at a constant temperature of 20±3° C. After acclimation for one week, the mice were weighed and put into groups of 6 animals selected so that the distribution of their body weights and of their plasma lipid levels determined for the first time before the experiment are uniform. The test compounds were suspended in carboxymethylcellulose (Sigma C4888) and administered by intragastric force feeding, at a rate of once per day for 13 days at the chosen dose. The animals had free access to water and to food (standard diet). At the end of the experiment, the animals were anesthetized after fasting for 4 hours, a blood sample was taken using anticoagulant (EDTA), then the mice were weighed and euthanased. The plasma was separated by centrifugation at 3000 rev/min for 20 minutes, and the samples were stored at +4° C.
# Samples of liver and of skeletal muscle tissue were taken and frozen immediately in liquid nitrogen and then stored at −80° C. for later analyses.
# The total RNA was extracted from fragments of liver using the NucleoSpin® 96 RNA kit (Macherey Nagel, Hoerdt, France) following the manufacturer's instructions. […]
# 1 μg of total RNA (quantified by spectrophotometry) was then reverse-transcribed to complementary DNA by reaction for 1 hour at 37° C. in a total volume of 30 μl containing buffer 1× (Invitrogen), 1.5 mM of DTT, 0.18 mM of dNTPs (Promega), 200 ng of pdN6 (Amersham), 30 U of RNase inhibitor (Promega) and 1 μl of MMLV-RT (Invitrogen).
# The quantitative PCR experiments were carried out using the MyiQ Single-Color Real-Time PCR Detection System (Biorad, Marnes-la-Coquette, France) and were performed using the iQ SYBR Green Supermix kit following the supplier's recommendations, in 96-well plates, on 5 μl of diluted reverse transcription reaction mixture with a hybridization temperature of 60° C. […]
# In both cases (hepatic tissue and skeletal muscle tissue), the amount of fluorescence emitted is directly proportional to the amount of complementary DNA present at the start of the reaction and amplified during PCR. […] The relative expression levels of each target are thus determined using the efficacy curves obtained with the points in the range. […]
# dyslipidemic E2/E2 mice = assay: Plasma lipid assays and lipoprotein distribution in the E2/E2 mouse; format: in vivo
# Protocol: The antilipemic and HDL-cholesterol synthesis stimulating properties of the compounds according to the invention were evaluated in vivo by assay of the plasma lipids, analysis of the distribution of cholesterol and of triglycerides in the various plasma lipoprotein fractions and measurement of the expression of the target genes of the PPARs in the liver and skeletal muscle after treatment of dyslipidemic E2/E2 mice with compound 2.
# The murine model used is the ApoE2/E2 type mouse, a transgenic mouse for the E2 isoform of human apolipoprotein E (Sullivan P M et al., 1998). In humans, this apolipoprotein, a constituent of the low and very low density lipoproteins (LDL-VLDL), occurs in three isoforms E2, E3 and E4. The E2 form has a mutation on an amino acid in position 158, which greatly weakens the affinity of this protein for the LDL receptor. The clearance of the VLDLs is accordingly almost zero. There is then accumulation of low-density lipoproteins and mixed hyperlipidemia called type III (high cholesterol and triglycerides).
# as §1
# The various lipid fractions (VLDL, LDL, HDL) of the plasma were separated by gel filtration chromatography. The concentrations of cholesterol and of triglycerides were then measured in each fraction by enzyme assays (bioMérieux-Lyon-France) following the supplier's recommendations.
# The plasma concentrations of total cholesterol were measured by enzyme assays (bioMérieux-Lyon-France) following the supplier's recommendations.
# The low-density lipoproteins (VLDL and LDL) were precipitated with phosphotungstate. The precipitate was removed by centrifugation. The HDL-cholesterol present in the supernatant was quantified by enzyme assays (bioMérieux-Lyon-France) following the supplier's recommendations.
# [2] = 50 mpk oral, 7 and 13 days, vs control animals
compound,measurement,setting,value
"CC(C)(Oc1ccc(CCC(=O)c2ccc(-c3ccc(C(F)(F)F)cc3)s2)c(Cl)c1Cl)C(=O)O [Compound 2, 2-(2,3-dichloro-4-(3-oxo-3-(5-(4-(trifluoromethyl)phenyl)thien-2-yl)propyl)phenoxy)-2-methylpropanoic acid]",hepatic expression of the gene coding for AcoX1,[1]; liver,significant increase
same,hepatic expression of the gene coding for ApoCIII,[1]; liver,decrease
same,hepatic expression of the gene coding for PDK4,[1]; liver,significant increase
same,expression of the gene coding for PDK4 in the skeletal muscle,[1]; skeletal muscle,significant increase
same,expression of the gene coding for UCP2 in the skeletal muscle,[1]; skeletal muscle,significant increase
same,plasma HDL-cholesterol level,dyslipidemic E2/E2 mice; [2],increased significantly
same,plasma total cholesterol level,dyslipidemic E2/E2 mice; [2],lowered significantly
same,level of triglycerides present in the VLDL,"dyslipidemic E2/E2 mice; 50 mpk, 13 days",lowered
same,plasma HDL-cholesterol level (distribution of cholesterol in plasma lipoprotein fractions),"dyslipidemic E2/E2 mice; 50 mpk, 13 days",increased
same,plasma levels of LDL and VLDL (distribution of cholesterol in plasma lipoprotein fractions),"dyslipidemic E2/E2 mice; 50 mpk, 13 days",significant decrease
